Test results as given in PMC4076215, “Nickel(II) Complex of Polyhydroxybenzaldehyde N4-Thiosemicarbazone Exhibits Anti-Inflammatory Activity by Inhibiting NF-κB Transactivation” (PLoS ONE, 2014).
“Also recorded” adds a separate entry of the source.

How the values were obtained:
[1] = Renal functional test (serum) after oral dosing; type: in vivo, C57BL/6 mice; conditions: after two weeks
Procedure: Renal functional test. C57BL/6 mice at age 8-12 weeks old were administrated orally with control PBS or
with various concentrations (125 mg/kg, 250 mg/kg and 500 mg/kg) of complex 5. n= 6 (3 male and 3
female mice)/group. After two weeks, sera were collected from the mice for renal functional test.

[2] = Acute toxicity test in mice; type: in vivo, C57BL/6 mice
Excerpt: Next, we examined the anti-inflammatory effects of complex 5 in a carrageenan-induced paw edema mouse model. We first tested the acute toxicity effect of complex 5 in C57BL/6 mice.

[3] = tested on: NF-κB transactivation activity; assay: NF-κB luciferase reporter assay in 293T-luc cells; type: cell-based; conditions: 293T-luc, 12.5, 25, 50 µg/ml 4 h, TNFα 12 h
Procedure: 293T cells were transduced with a lentivirus carrying luciferase reporter driven by NF-κB enhancer found in immunoglobulin kappa light chain gene to prepare 293T-luc cells. The 293T-luc cells were pretreated with or without of complex 5 (12.5 µg/ml, 25 µg/ml, 50 µg/ml) for 4 h. The cells were later stimulated with TNFα (10 ng/ml) for 12 h. Cells were scraped, collected into 1.5 ml tubes and centrifuged at 1.5 k rpm 4°C for 5 min before removing the culture medium. Cell pellets were resuspended in 50 µl luciferase lysis buffer (100 mM Sodium Phosphate buffer, pH7.8; 8 mM MgCl2; 1% Triton X-100; 15% glycerol; 1 mM DTT). A total volume of 50 µl of luciferase substrate (containing 1 mM ATP; 0.25 mM luciferin; 1% BSA) was added to each well on a white 96-well plate containing 20 µg lysate. Luciferase activity was measured in 96-well plate with a VarioskanFlash microplate reader (Thermo Scientific).
Figure 6 Complex 5 inhibits NF-κB transactivation activity. (A) RAW264.7 cells pretreated with or without complex 5 for 4 h were treated with LPS for 4 h. The expression of TNFα, IFNβ, IL6 and IP10 were measured by QPCR. […] The expression of TNFα, IL8, CCL5, ICAM1, IL6 and A20 were measured by QPCR. […] The expression of IL8 and TNF were measured by QPCR. […] Cell lysates were prepared and the luciferase activities were measured. […]

[4] = tested on: carrageenan-induced paw edema; assay: Carrageenan-induced paw edema mouse model; type: in vivo, C57BL/6 mice; conditions: for Paw size: 1 h after carrageenan, control 7.3±0.8 mm
Procedure: Male C57BL/6 mice at age 8–12 weeks old were from Jackson Laboratories, USA. Mice were administrated intraperitoneally (i.p.) with two different doses of complex 5 (2.5 mg/kg and 5 mg/kg). Negative control groups were i.p. injected with 200 µl of vehicle (50% v/v ethanol). A standard drug 2 mg/kg dexamethasone (Sigma) was included in the study. After 1 h, paw edema was induced by injecting 50 µl of 1% carrageenan (Sigma) through the plantar tissue at the right hind paw of each mouse. The thickness of right paw of each mouse was measured at 1, 3 and 5 h after carrageenan was administered. Four animals per group were tested (n = 4). Quantification of right hind paw thickness were analyzed for statistical significance using Student's t-test. Animals were housed in individually ventilated cages in specific pathogen free facility, Animal Experimental Unit, University of Malaya. All efforts were made to minimize animal suffering and the number of animals used. At the end of the experiment, mice were euthanized by CO2 asphyxiation. Animal work was approved by the Faculty of Medicine Animal Care and Use Committee (FOMIACUC) at University of Malaya and reported according to ARRIVE guidelines.
To test the in vivo inhibitory effect of complex 5 on inflammation, we administrated two doses of complex 5 (2.5 mg/kg and 5.0 mg/kg) into C57BL/6 wild type mice through i.p. injection. For a positive control, we performed i.p. injection of 2.0 mg/kg dexamethasone into the mice. After 1 h, paw edema in the mice was induced by injecting 1% carrageenan to the right hind paw. The paw sizes were measured at 1, 3 and 5 h after edema induction. The edema formation at the mice paw was due to inflammatory response causing the accumulation of histamine, serotonin, prostaglandin and other secreted inflammatory mediators.
Male C57BL/6 mice at age of 8-12 weeks old were non-injected or injected i.p. with 2.5 mg/kg or 5.0 mg/kg complex 5, whereas for positive controls, mice were injected i.p. with 2.0 mg/kg dexamethasone. After 1 h, acute inflammation was induced in the right hind paw of each mice by injecting 50 µl of carrageenan. The size of the paw were measured after (A) 1 h or, (B) 1, 3 and 5 h post carrageenan injection. Shown were mean ±SD (n = 4). Statistical analysis was performed with Student's t-test.

NC1=[S+][Ni-2]2([P+](c3ccccc3)(c3ccccc3)c3ccccc3)[O]c3c(O)cccc3C=[N+]2N1.[Cl-] [complex 5, {2-[(2-Carbamothiolylhydrazin-1-ylidene-[kappa]2N1,S)methyl]-6-hydroxyphenolato-[kappa]O1}(triphenylphosphine-[kappa]P)nickel(II) chloride]
Anion Gap ([1]; 125 mg/kg oral): 24.80 mmol/L
CO2 ([1]; 125 mg/kg oral): 18.18 mmol/L
Chlorine ([1]; 125 mg/kg oral): 110.80 mmol/L
Creatinine ([1]; 125 mg/kg oral): < 9 µmol/L
Potassium ([1]; 125 mg/kg oral): 6.68 ± 1.12 mmol/L
Sodium ([1]; 125 mg/kg oral): 147.00 mmol/L
Urea ([1]; 125 mg/kg oral): 10.72 mmol/L
Anion Gap ([1]; 250 mg/kg oral): 26.67 mmol/L
CO2 ([1]; 250 mg/kg oral): 16.36 mmol/L
Chlorine ([1]; 250 mg/kg oral): 111.00 mmol/L
Creatinine ([1]; 250 mg/kg oral): < 9 µmol/L
Potassium ([1]; 250 mg/kg oral): 6.50 ± 0.52 mmol/L
Sodium ([1]; 250 mg/kg oral): 147.50 mmol/L
Urea ([1]; 250 mg/kg oral): 9.96 mmol/L
Anion Gap ([1]; 500 mg/kg oral): 27.00 mmol/L
CO2 ([1]; 500 mg/kg oral): 16.14 mmol/L
Chlorine ([1]; 500 mg/kg oral): 110.83 mmol/L
Creatinine ([1]; 500 mg/kg oral): < 9 µmol/L
Potassium ([1]; 500 mg/kg oral): 5.83 ± 0.74 mmol/L
Sodium ([1]; 500 mg/kg oral): 148.33 mmol/L
Urea ([1]; 500 mg/kg oral): 9.56 mmol/L
Safety judged from renal and liver functional tests ([2]; 125 mg/kg or 250 mg/kg oral): safe for consumption
Safety judged from renal and liver functional tests ([2]; 500 mg/kg oral): may be cytotoxic to the host
Acute toxicity observation ([2]; 14 day observation period): no overt abnormalities
Well tolerated dose ([2]; acute toxicity test): up to 250 mg/kg
TNFα-induced NF-κB luciferase activity [3]: significantly reduced the luciferase activity in a dose-dependent manner
Paw size ([4]; 2.5 mg/kg i.p.): 5.8±0.4 mm
Paw edema formation ([4]; 5.0 mg/kg i.p.): obvious reduction; also recorded: effectively reduced
Paw size ([4]; 5.0 mg/kg i.p.): 5.0±0.2 mm
Paw edema compared to untreated mice ([4]; 3 and 5 h post carrageenan): further reduced
